The NIST ThermoML archive (doi:10.1016/j.fluid.2004.09.013)
Numbers after ± are expanded uncertainties.

Settings: for mass density: Fluid (supercritical or subcritical phases), Vibrating tube method; for vapor or sublimation pressure: Liquid

For C/C=C/C [(E)-2-butene], the mass density (273.24 K, 553 kPa) was 627.87 ± 1.3 kg/m3, the mass density (273.24 K, 4992 kPa) was 633.27 ± 1.3 kg/m3 and the mass density (273.24 K, 9995 kPa) was 638.88 ± 1.3 kg/m3. The mass density (273.24 K, 14991 kPa) was 644.04 ± 1.3 kg/m3, the mass density (273.24 K, 19997 kPa) was 648.86 ± 1.4 kg/m3 and the mass density (273.24 K, 24996 kPa) was 653.38 ± 1.4 kg/m3. The mass density (273.24 K, 29993 kPa) was 657.62 ± 1.4 kg/m3, the mass density (273.24 K, 34997 kPa) was 661.64 ± 1.4 kg/m3 and the mass density (273.24 K, 39989 kPa) was 665.43 ± 1.5 kg/m3. The “vapor or sublimation pressure” value (274.84 K) was 105.09 ± 0.48 kPa, the mass density (278.25 K, 553 kPa) was 622.2 ± 1.3 kg/m3 and the mass density (278.25 K, 4990 kPa) was 627.88 ± 1.3 kg/m3. For the same molecule, the mass density (278.25 K, 10005 kPa) was 633.76 ± 1.3 kg/m3, the mass density (278.25 K, 15007 kPa) was 639.16 ± 1.3 kg/m3 and the mass density (278.25 K, 20007 kPa) was 644.16 ± 1.4 kg/m3. It also gave a mass density (278.25 K, 24990 kPa) of 648.82 ± 1.4 kg/m3, a mass density (278.25 K, 30005 kPa) of 653.23 ± 1.4 kg/m3 and a mass density (278.25 K, 34987 kPa) of 657.36 ± 1.4 kg/m3. For the same molecule, the mass density (278.25 K, 40004 kPa) was 661.3 ± 1.5 kg/m3, the “vapor or sublimation pressure” value (278.8 K) was 122.11 ± 0.52 kPa and the mass density (283.26 K, 551 kPa) was 616.48 ± 1.2 kg/m3. It also gave a mass density (283.26 K, 4990 kPa) of 622.46 ± 1.3 kg/m3, a mass density (283.26 K, 9993 kPa) of 628.6 ± 1.3 kg/m3 and a mass density (283.26 K, 15009 kPa) of 634.25 ± 1.3 kg/m3. For the same molecule, the mass density (283.26 K, 20003 kPa) was 639.45 ± 1.3 kg/m3, the mass density (283.26 K, 24994 kPa) was 644.29 ± 1.4 kg/m3 and the mass density (283.26 K, 29985 kPa) was 648.83 ± 1.4 kg/m3. For the same molecule, the mass density (283.26 K, 35008 kPa) was 653.12 ± 1.4 kg/m3, the mass density (283.26 K, 40005 kPa) was 657.17 ± 1.5 kg/m3 and the “vapor or sublimation pressure” value (283.68 K) was 145.21 ± 0.59 kPa. The “vapor or sublimation pressure” value (287.85 K) was 167.86 ± 0.67 kPa, the mass density (288.27 K, 548 kPa) was 610.68 ± 1.2 kg/m3 and the mass density (288.27 K, 4995 kPa) was 616.99 ± 1.3 kg/m3. The mass density (288.27 K, 9994 kPa) was 623.43 ± 1.3 kg/m3, the mass density (288.27 K, 14992 kPa) was 629.3 ± 1.3 kg/m3 and the mass density (288.27 K, 19992 kPa) was 634.71 ± 1.3 kg/m3. The mass density (288.27 K, 24999 kPa) was 639.75 ± 1.4 kg/m3, the mass density (288.27 K, 29993 kPa) was 644.44 ± 1.4 kg/m3 and the mass density (288.27 K, 34985 kPa) was 648.85 ± 1.4 kg/m3. The mass density (288.27 K, 40007 kPa) was 653.04 ± 1.5 kg/m3, the “vapor or sublimation pressure” value (292.59 K) was 196.47 ± 0.76 kPa and the mass density (293.28 K, 550 kPa) was 604.8 ± 1.2 kg/m3. For the same molecule, the mass density (293.28 K, 4985 kPa) was 611.45 ± 1.2 kg/m3, the mass density (293.28 K, 9991 kPa) was 618.21 ± 1.3 kg/m3 and the mass density (293.28 K, 14993 kPa) was 624.34 ± 1.3 kg/m3. It also gave a mass density (293.28 K, 19997 kPa) of 629.98 ± 1.3 kg/m3, a mass density (293.28 K, 24993 kPa) of 635.19 ± 1.4 kg/m3 and a mass density (293.28 K, 29998 kPa) of 640.06 ± 1.4 kg/m3. The mass density (293.28 K, 35013 kPa) was 644.64 ± 1.4 kg/m3, the mass density (293.28 K, 39998 kPa) was 648.92 ± 1.4 kg/m3 and the “vapor or sublimation pressure” value (296.57 K) was 221.89 ± 0.89 kPa. The mass density (298.29 K, 551 kPa) was 598.83 ± 1.2 kg/m3, the mass density (298.29 K, 4989 kPa) was 605.85 ± 1.2 kg/m3 and the mass density (298.29 K, 14986 kPa) was 619.36 ± 1.3 kg/m3. It also gave a mass density (298.29 K, 19984 kPa) of 625.21 ± 1.3 kg/m3, a mass density (298.29 K, 25012 kPa) of 630.65 ± 1.4 kg/m3 and a mass density (298.29 K, 29999 kPa) of 635.67 ± 1.4 kg/m3. The mass density (298.29 K, 34986 kPa) was 640.36 ± 1.4 kg/m3, the mass density (298.29 K, 39987 kPa) was 644.79 ± 1.4 kg/m3 and the mass density (298.3 K, 9994 kPa) was 612.96 ± 1.3 kg/m3. The mass density (303.3 K, 590 kPa) was 592.81 ± 1.2 kg/m3, the mass density (303.3 K, 4982 kPa) was 600.18 ± 1.2 kg/m3 and the mass density (303.3 K, 9998 kPa) was 607.66 ± 1.3 kg/m3. For the same molecule, the mass density (303.3 K, 19987 kPa) was 620.43 ± 1.3 kg/m3, the mass density (303.3 K, 25004 kPa) was 626.07 ± 1.4 kg/m3 and the mass density (303.3 K, 29998 kPa) was 631.26 ± 1.4 kg/m3. The mass density (303.3 K, 35005 kPa) was 636.13 ± 1.4 kg/m3, the mass density (303.31 K, 15001 kPa) was 614.35 ± 1.3 kg/m3 and the mass density (303.31 K, 39999 kPa) was 640.69 ± 1.4 kg/m3. The “vapor or sublimation pressure” value (307.78 K) was 313.51 ± 1.2 kPa, the mass density (308.31 K, 635 kPa) was 586.69 ± 1.2 kg/m3 and the mass density (308.31 K, 4989 kPa) was 594.43 ± 1.2 kg/m3. The mass density (308.32 K, 10005 kPa) was 602.29 ± 1.2 kg/m3, the mass density (308.32 K, 14996 kPa) was 609.28 ± 1.3 kg/m3 and the mass density (308.32 K, 19995 kPa) was 615.63 ± 1.3 kg/m3. The mass density (308.32 K, 24994 kPa) was 621.44 ± 1.3 kg/m3, the mass density (308.32 K, 29983 kPa) was 626.82 ± 1.4 kg/m3 and the mass density (308.32 K, 35009 kPa) was 631.86 ± 1.4 kg/m3. The mass density (308.32 K, 39996 kPa) was 636.54 ± 1.4 kg/m3, the “vapor or sublimation pressure” value (313.09 K) was 365.29 ± 1.4 kPa and the mass density (313.2 K, 869 kPa) was 580.91 ± 1.2 kg/m3. For the same molecule, the mass density (313.21 K, 4996 kPa) was 588.66 ± 1.2 kg/m3, the mass density (313.21 K, 10004 kPa) was 596.91 ± 1.2 kg/m3 and the mass density (313.21 K, 14989 kPa) was 604.2 ± 1.3 kg/m3. The mass density (313.21 K, 20008 kPa) was 610.83 ± 1.3 kg/m3, the mass density (313.21 K, 24999 kPa) was 616.85 ± 1.3 kg/m3 and the mass density (313.21 K, 29996 kPa) was 622.41 ± 1.4 kg/m3. For the same molecule, the mass density (313.21 K, 34992 kPa) was 627.58 ± 1.4 kg/m3, the mass density (313.21 K, 39986 kPa) was 632.41 ± 1.4 kg/m3 and the “vapor or sublimation pressure” value (318.13 K) was 418.65 ± 1.6 kPa. For the same molecule, the mass density (318.21 K, 939 kPa) was 574.67 ± 1.2 kg/m3, the mass density (318.21 K, 5000 kPa) was 582.76 ± 1.2 kg/m3 and the mass density (318.21 K, 9985 kPa) was 591.43 ± 1.2 kg/m3. It also gave a mass density (318.21 K, 14990 kPa) of 599.1 ± 1.3 kg/m3, a mass density (318.21 K, 20004 kPa) of 605.99 ± 1.3 kg/m3 and a mass density (318.21 K, 25005 kPa) of 612.25 ± 1.3 kg/m3. For the same molecule, the mass density (318.21 K, 29987 kPa) was 617.99 ± 1.4 kg/m3, the mass density (318.21 K, 34986 kPa) was 623.33 ± 1.4 kg/m3 and the mass density (318.21 K, 39990 kPa) was 628.31 ± 1.4 kg/m3. It also gave a mass density (323.22 K, 1000 kPa) of 568.23 ± 1.2 kg/m3, a mass density (323.22 K, 4994 kPa) of 576.71 ± 1.2 kg/m3 and a mass density (323.22 K, 9997 kPa) of 585.9 ± 1.2 kg/m3. For the same molecule, the mass density (323.22 K, 14997 kPa) was 593.93 ± 1.2 kg/m3, the mass density (323.22 K, 19997 kPa) was 601.1 ± 1.3 kg/m3 and the mass density (323.22 K, 24992 kPa) was 607.59 ± 1.3 kg/m3. The mass density (323.22 K, 30007 kPa) was 613.57 ± 1.4 kg/m3, the mass density (323.22 K, 34983 kPa) was 619.06 ± 1.4 kg/m3 and the mass density (323.22 K, 39993 kPa) was 624.2 ± 1.4 kg/m3. The “vapor or sublimation pressure” value (327.87 K) was 543.04 ± 2 kPa, the mass density (328.22 K, 1068 kPa) was 561.65 ± 1.1 kg/m3 and the mass density (328.22 K, 4987 kPa) was 570.54 ± 1.2 kg/m3. The mass density (328.22 K, 9989 kPa) was 580.26 ± 1.2 kg/m3, the mass density (328.22 K, 14994 kPa) was 588.69 ± 1.2 kg/m3 and the mass density (328.22 K, 19994 kPa) was 596.17 ± 1.3 kg/m3. The mass density (328.22 K, 24990 kPa) was 602.92 ± 1.3 kg/m3, the mass density (328.22 K, 30006 kPa) was 609.12 ± 1.4 kg/m3 and the mass density (328.22 K, 34984 kPa) was 614.78 ± 1.4 kg/m3.
